B1: KD: purified kringle domain of uPA (amino acids 47-135), SEQ ID NO:2 epitope (protein)
chain: SKTCYEGNGHFYRGKASTDTMGRPCLPWNSATVLQQTYHAHRSDALQLGLGKHNYCRNPDNRRRPWCYVQVGLKPLVQECMVHDCA

Legend:
Type in all cases: cell-based, mouse
[1] = tested on: LPS stimulated neutrophils; test: LPS-induced cytokine mRNA expression in neutrophils, quantitative RT-PCR; conditions: LPS 10 ng/ml, protein 10 nM, 4 hours; FIG. 1-4
Procedure: Isolation of neutrophils. Neutrophils were purified from bone marrow cell suspensions as previously described by Abraham, et al., J Immunol 170:5644 (2003), Asehnoune, et al., J Immunol 172:2522 (2004), and Strassheim, et al., Am J Physiol Cell Physiol 286:C683 (2004). Briefly summarized, to obtain the bone marrow cell suspension, the femur and tibia of a mouse were flushed with 5 ml RPMI 1640/penicillin/streptomycin and the cells passed through a glass wool column, and pelleted by centrifugation at 1000 rpm for 10 minutes. […] Neutrophil purity, as determined by Wright's stained cytospin preparations, was greater than 97%. Cell viability, as determined by trypan blue exclusion, was consistently greater than 98%.
(§1) Real time quantitative RT-PCR. Quantitative RT-PCR to measure neutrophil cytokine expression was performed as previously described by Abraham, et al., J Immunol 170:5644 (2003), and Park, et al., Am J Physiol Cell Physiol 284:C870 (2003). […] For each mRNA detected, a fluorogenic probe and two primers (forward and reverse) for PCR were synthesized (Applied Biosystems, Foster City, Calif.). […]
All reagents used in the one step RT-PCR reactions were purchased from Applied Biosystems. […] The amount of cytokine mRNA was determined from a standard curve with 10 fold dilutions of known amounts of target RNA for each primer and probe set. […]

[2] = tested on: integrins; test: RGD or RGE peptide added to neutrophil cultures containing uPA and LPS; conditions: LPS 10 ng/ml, scuPA 10 nM, peptide 50 μM, 4 hours; FIG. 7
Procedure: (§2) Isolation of neutrophils. Neutrophils were purified from bone marrow cell suspensions as previously described by Abraham, et al., J Immunol 170:5644 (2003), Asehnoune, et al., J Immunol 172:2522 (2004), and Strassheim, et al., Am J Physiol Cell Physiol 286:C683 (2004). Briefly summarized, to obtain the bone marrow cell suspension, the femur and tibia of a mouse were flushed with 5 ml RPMI 1640/penicillin/streptomycin and the cells passed through a glass wool column, and pelleted by centrifugation at 1000 rpm for 10 minutes. The cell pellets were resuspended in 0.3% FCS/PBS and then incubated with 20 μl of primary antibodies specific for cell surface markers F4/80, CD4, CD45R, CD5, and TER19 for 15 minutes, rotating at 4° C. This custom cocktail (Stem Cell Technologies, Vancouver, British Columbia) is specific for T and B cells, RBC, monocytes and macrophages. Anti-biotin tetrameric antibody complexes (100 μl) were then added, and the cells incubated for 15 minutes, rotating at 4° C. Following this, 60 μl of colloidal magnetic dextran iron particles was added to the suspension and incubated for 15 minutes, rotating at 4° C. The entire cell suspension was then placed into a column, surrounded by a magnet. The T cells, B cells, RBC, monocytes and macrophages were captured in the column, allowing the neutrophils to pass through by negative selection methods. Neutrophil purity, as determined by Wright's stained cytospin preparations, was greater than 97%. Cell viability, as determined by trypan blue exclusion, was consistently greater than 98%.
as §1

[3] = tested on: LPS stimulated neutrophils; test: Cytokine ELISA of culture supernatants of LPS stimulated neutrophils; conditions: LPS 10 ng/ml, protein 10 nM, 4 hours, FIG. 5
Procedure: as §2, with “Anti-biotin tetrameric antibody complexes (100 μl) were then added, and the cells incubated for 15 minutes, rotating at 4° C. Following this, 60 μl of colloidal magnetic dextran iron particles was added to the suspension and incubated for 15 minutes, rotating at 4° C. The entire cell suspension was then placed into a column, surrounded by a magnet. The T cells, B cells, RBC, monocytes and macrophages were captured in the column, allowing the neutrophils to pass through by negative selection methods.” left out
Cytokine ELISA. Immunoreactive TNF-α, IL-1β, and MIP-2 were quantified using commercially available ELISA kits (R&D Systems, Minneapolis, Minn.), according to manufacturer's instructions and as described previously by Yum, et al., J Immunol 167:6601 (2001). […]

Molecule	enhancement of LPS-induced cytokine mRNA expression (IL-1β, TNF-α, MIP-2) compared with scuPA [1]	increased production of IL-1β, TNF-α, and MIP-2 produced by co-culture of LPS stimulated neutrophils with scuPA [2]	uPA-induced potentiation of neutrophil responses [2]	neutrophil production (secretion) of IL-1β, TNF-α, and MIP-2 [3]
ATF: amino terminal fragment of uPA, which contains the uPA GFD and KD	to the same extent as did scuPA	–	–	–
RGD: RGD peptide that blocks interactions with integrins	–	prevented	blocked	–
RGE: RGE peptide that serves as a control	–	–	not	–
B1	to the same extent or even a greater extent than did scuPA	–	–	to the same extent as did intact scuPA
